Results published in publication PMC8509980 (Chinese Medical Journal, 2021).

Target: T1, sineoculis homeobox homolog 1 (SIX1) (Homo sapiens, UniProt Q15475)
T1 sequence (Q15475 1-284): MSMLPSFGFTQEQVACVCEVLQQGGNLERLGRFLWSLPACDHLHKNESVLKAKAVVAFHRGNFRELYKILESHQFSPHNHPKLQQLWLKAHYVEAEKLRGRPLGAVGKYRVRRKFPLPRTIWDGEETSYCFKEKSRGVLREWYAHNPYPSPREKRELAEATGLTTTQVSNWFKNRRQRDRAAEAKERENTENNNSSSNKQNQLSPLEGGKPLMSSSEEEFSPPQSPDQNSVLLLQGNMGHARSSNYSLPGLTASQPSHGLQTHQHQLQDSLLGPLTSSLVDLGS
T1 sequence (Q99502 1-592 partner): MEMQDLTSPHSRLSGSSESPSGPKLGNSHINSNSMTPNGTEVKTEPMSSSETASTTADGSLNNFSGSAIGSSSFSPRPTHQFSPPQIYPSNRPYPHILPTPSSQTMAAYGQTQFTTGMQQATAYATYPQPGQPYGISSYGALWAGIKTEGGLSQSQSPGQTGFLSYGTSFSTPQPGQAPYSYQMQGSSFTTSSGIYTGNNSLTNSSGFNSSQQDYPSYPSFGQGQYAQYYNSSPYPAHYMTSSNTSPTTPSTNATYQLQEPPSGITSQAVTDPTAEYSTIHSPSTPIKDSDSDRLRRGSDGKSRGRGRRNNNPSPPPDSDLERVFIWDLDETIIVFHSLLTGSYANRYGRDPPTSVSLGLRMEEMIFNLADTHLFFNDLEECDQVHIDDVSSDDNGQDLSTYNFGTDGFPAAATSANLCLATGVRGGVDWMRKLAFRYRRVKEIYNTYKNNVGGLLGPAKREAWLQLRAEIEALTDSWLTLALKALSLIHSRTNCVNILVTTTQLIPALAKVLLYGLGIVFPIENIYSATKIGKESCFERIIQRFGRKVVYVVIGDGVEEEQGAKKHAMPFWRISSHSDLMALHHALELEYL
Experiment: AlphaScreen disruption of purified GST-SIX1/His-EYA1 interaction
Format: binding

Row | IC50 | Substance
1 | 12.6 ± 1.15 µM | NSC0191
2 | 83.4 ± 7.24 µM | NSC0933
